Measurements published in ChEMBL document CHEMBL1139047, “Design and synthesis of a novel class of furan-based molecules as potential 20S proteasome inhibitors” (Bioorg Med Chem Lett, 2007).

How the values were obtained:
[1] = Inhibition of chymotrypsin-like activity of 20S proteasome; assay type: subcellular, Homo sapiens
[2] = test system: HL-60; test: Antiproliferative activity against human HL60 cells; assay type: functional, cell-based
[3] = Inhibition of trypsin-like activity of 20S proteasome; assay type: subcellular, Homo sapiens
[4] = test system: HepG2; test: Antiproliferative activity against human HepG2 cells; assay type: functional, cell-based
[5] = Inhibition of peptidyl-glutamyl peptide hydrolase activity of 20S proteasome; assay type: subcellular, Homo sapiens

Row | SMILES | IC50 [1] | further results
1 | CC(C)[C@H](NC(=O)[C@H](Nc1ccccc1)[C@H](O)[C@H](Cc1ccccc1)NC(=O)OC(C)(C)C)C(=O)c1ccco1 | > 100 µM | 
2 | CC(C)C[C@H](NC(=O)[C@H](Cc1ccccc1)NC(=O)[C@H](Cc1ccccc1)NC(=O)OC(C)(C)C)C(=O)c1ccco1 | 7.85 µM | IC50 [2]: 37.1 µM; IC50 [3]: > 100 µM; IC50 [4]: 34.2 µM; IC50 [5]: > 100 µM
3 | CC(C)C[C@H](NC(=O)[C@H](Cc1ccccc1)NC(=O)OC(C)(C)C)C(=O)N[C@H](C(=O)c1ccco1)C(C)C | > 100 µM | 
4 | CC(C)C[C@H](NC(=O)[C@H](NCc1ccccc1)[C@H](O)[C@H](Cc1ccccc1)NC(=O)OC(C)(C)C)C(=O)c1ccco1 | > 100 µM | 
5 | CC(C)[C@H](NC(=O)[C@H](NCc1ccccc1)[C@H](O)[C@H](Cc1ccccc1)NC(=O)OC(C)(C)C)C(=O)c1ccco1 | > 100 µM | 
6 | CC[C@@H](C)[C@H](NC(=O)[C@H](Nc1ccccc1)[C@H](O)[C@H](Cc1ccccc1)NC(=O)OC(C)(C)C)C(=O)c1ccco1 | > 100 µM | 
7 | CC[C@H](C)[C@H](NC(=O)[C@H](CC(C)C)NC(=O)[C@H](Cc1ccccc1)NC(=O)OC(C)(C)C)C(=O)c1ccco1 | > 100 µM | 
8 | CC(C)[C@H](NC(=O)[C@H](Cc1ccccc1)NC(=O)[C@H](Cc1ccccc1)NC(=O)OC(C)(C)C)C(=O)c1ccco1 | > 100 µM | 
9 | CC[C@@H](C)[C@H](NC(=O)[C@H](NCc1ccccc1)[C@H](O)[C@H](Cc1ccccc1)NC(=O)OC(C)(C)C)C(=O)c1ccco1 | > 100 µM | 
10 | CC[C@H](C)[C@H](NC(=O)[C@@H](NC(=O)[C@H](Cc1ccccc1)NC(=O)OC(C)(C)C)C(C)C)C(=O)c1ccco1 | > 100 µM | 
11 | CC(C)[C@H](NC(=O)[C@H](Cc1ccccc1)NC(=O)OC(C)(C)C)C(=O)N[C@H](C(=O)c1ccco1)C(C)C | > 100 µM | 
12 | CC(C)C[C@H](NC(=O)[C@H](Nc1ccccc1)[C@H](O)[C@H](Cc1ccccc1)NC(=O)OC(C)(C)C)C(=O)c1ccco1 | > 100 µM | 
13 | CC[C@H](C)[C@H](NC(=O)[C@H](Cc1ccccc1)NC(=O)[C@H](Cc1ccccc1)NC(=O)OC(C)(C)C)C(=O)c1ccco1 | > 100 µM | 
14 | CC(C)C[C@H](NC(=O)[C@@H](NC(=O)[C@H](Cc1ccccc1)NC(=O)OC(C)(C)C)C(C)C)C(=O)c1ccco1 | > 100 µM | 
15 | CC(C)C[C@H](NC(=O)[C@H](Cc1ccccc1)NC(=O)OC(C)(C)C)C(=O)N[C@@H](CC(C)C)C(=O)c1ccco1 | > 100 µM | 
